# Laboratory results: patent US11000033B2, “Ketone or oxime compound, and herbicide” (NISSAN CHEMICAL CORPORATION, priority 2014, dated 2021)
# Assays:
# Format in all cases: in vivo
# [1] = test system: Monochoria vaginalis; experiment: Test Example 1: herbicidal activity, application before weed generation in submerged conditions (symbol C); conditions: application herbicide amount 320 g/ha
# Method in brief: (§1)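 Mixed weed seeds sown in alluvial soil under 4 cm of water, with rice seedlings at the 2.5-leaf stage added. Same-day treatment: emulsion diluted to a set herbicide amount onto the water. Three weeks at 25–30 °C, then graded on a six-step scale.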
# [2] = test system: Setaria viridis; experiment: Test Example 4: herbicidal effect by soil treatment (symbol G)
# Method in brief: (§2)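 Seeds were sown in sterilized diluvial soil, covered with about 1.5 cm of soil, and the soil surface was sprayed with a water-diluted emulsion of the compound at a predetermined rate. Plants grew in a greenhouse at 25° C. to 30° C.; effects were scored visually 3 weeks after application.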
# [3] = test system: Abutilon theophrasti; experiment: Test Example 4: herbicidal effect by soil treatment (symbol M)
# Method in brief: as §2
# [4] = test system: Lolium multiflorum Lam.; experiment: Test Example 5: herbicidal effect by foliage application, plastic box (symbol K); conditions: 320 g/ha, 3 weeks after application
# Method in brief: (§3)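 Post-emergence spray; diluvial soil (sterilized), ~1.5 cm seed cover; greenhouse 25–30° C; 14-day-old plants; water-diluted emulsion at predetermined dose; visual score at 3 wk post-treatment.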
# [5] = test system: Galium spurium; experiment: Test Example 5: herbicidal effect by foliage application, plastic box (symbol Q); conditions: 320 g/ha, 3 weeks after application
# Method in brief: as §3
# [6] = test system: beet; experiment: Test Example 5: effect on crop by foliage application, plastic box (symbol f); conditions: 320 g/ha, 3 weeks after application
# Method in brief: (§4)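 Greenhouse test at 25° C. to 30° C. Seeds of crops and weeds were spot-sown in boxes of sterilized diluvial soil under roughly 1.5 cm soil cover, then grown for foliage treatment.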
# [7] = test system: beet; experiment: Test Example 4: effect on crop by soil treatment (symbol f); conditions: for f: beet, effect grade on crop: 320 g/ha
# Method in brief: (§5)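 Plants are raised in a greenhouse (25° C. to 30° C.) from spot-sown seed, which sits under about 1.5 cm of sterilized diluvial soil in a box shared with weed species.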
# [8] = test system: Amaranthus retroflexus; experiment: Test Example 5: herbicidal effect by foliage application, plastic box (symbol N); conditions: 320 g/ha, 3 weeks after application
# Method in brief: as §3
# [9] = test system: Galium spurium; experiment: Test Example 4: herbicidal effect by soil treatment (symbol Q)
# Method in brief: as §2
# [10] = test system: wheat; experiment: Test Example 4: effect on crop by soil treatment (symbol e); conditions: for e: wheat, effect grade on crop: 320 g/ha
# Method in brief: as §5
# [11] = test system: Echinochloa oryzacola Vasing.; experiment: Test Example 2: herbicidal activity, application during weed generation in submerged conditions (symbol A); conditions: Table 23; application herbicide amount 320 g/ha; grade 0-5 by criteria of Test Example 1
# Method in brief: (§6)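 Scoring of herbicidal effect took place 3 weeks after treatment, using the criteria of the earlier test. Treatment was water-surface application of diluted emulsifiable compound at a set dose. Plants were at one- to two-leaf stage in submerged alluvial soil (4 cm depth), greenhouse 25-30° C.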
# [12] = test system: Scirpus juncoides; experiment: Test Example 2: herbicidal activity, application during weed generation in submerged conditions (symbol B); conditions: Table 23; application herbicide amount 320 g/ha; grade 0-5 by criteria of Test Example 1
# Method in brief: as §6
# [13] = test system: Echinochloa oryzacola Vasing.; experiment: Test Example 1: herbicidal activity, application before weed generation in submerged conditions (symbol A); conditions: application herbicide amount 320 g/ha
# Method in brief: as §1
# [14] = test system: Alopecurus myosuroides; experiment: Test Example 5: herbicidal effect by foliage application, plastic box (symbol J); conditions: 320 g/ha, 3 weeks after application
# Method in brief: as §3
# [15] = test system: rice plant; experiment: Test Example 5: effect on crop by foliage application, plastic box (symbol b); conditions: 320 g/ha, 3 weeks after application
# Method in brief: as §4
# [16] = test system: corn; experiment: Test Example 4: effect on crop by soil treatment (symbol c); conditions: for c: corn, effect grade on crop: 320 g/ha
# Method in brief: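 Sterilized diluvial soil, spot sowing, ~1.5 cm soil cover; greenhouse 25–30° C.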
# [17] = test system: Monochoria vaginalis; experiment: Test Example 2: herbicidal activity, application during weed generation in submerged conditions (symbol C); conditions: Table 23; application herbicide amount 320 g/ha; grade 0-5 by criteria of Test Example 1
# Method in brief: as §6
# [18] = application herbicide amount 320 g/ha
SMILES,"Herbicidal effect grade, C: Monochoria vaginalis [1]","G: Setaria viridis, herbicidal effect grade ([2]; 320 g/ha)","K: Lolium multiflorum Lam., herbicidal effect (criteria 0-5) [4]","Q: Galium spurium, herbicidal effect (criteria 0-5) [5]","f: beet, effect on crop (criteria 0-5) [6]","f: beet, effect grade on crop [7]","Q: Galium spurium, herbicidal effect grade ([9]; 320 g/ha)","e: wheat, effect grade on crop [10]","Herbicidal effect grade, A: Echinochloa oryzacola Vasing. [11]","Herbicidal effect grade, B: Scirpus juncoides [12]","Herbicidal effect grade, A: Echinochloa oryzacola Vasing. [13]","J: Alopecurus myosuroides, herbicidal effect (criteria 0-5) [14]",C (Monochoria vaginalis) herbicidal effect grade [1],"K: Lolium multiflorum Lam., herbicidal effect grade [4]","Q: Galium spurium, herbicidal effect grade [5]","f: beet, effect on crop grade [6]","N: Amaranthus retroflexus, herbicidal effect grade [8]",A (Echinochloa oryzacola Vasing.) herbicidal effect grade [13],"J: Alopecurus myosuroides, herbicidal effect grade [14]","b: directly sowed rice plant, effect on crop grade [15]",also measured
COC(=O)c1ccc(CON=C(C)CC2CC(O)=C(c3c(C)cc(C)cc3C)C2=O)cc1 (stereo not shown) [1-118],2 (Herbicidal ratio of 20% or higher and lower than 40%),2 (Herbicidal ratio of 20% or higher and lower than 40%),5 (Herbicidal ratio of 90% or more (almost completely withered)),3 (Herbicidal ratio of 40% or higher and lower than 70%),0 (Herbicidal ratio of 5% or lower (almost no effect)),0 (Herbicidal ratio of 5% or lower (almost no effect)),0 (Herbicidal ratio of 5% or lower (almost no effect)),0 (Herbicidal ratio of 5% or lower (almost no effect)),2 (Herbicidal ratio of 20% or higher and lower than 40%),0 (Herbicidal ratio of 5% or lower (almost no effect)),5 (Herbicidal ratio of 90% or more (almost completely withered)),4 (Herbicidal ratio of 70% or higher and lower than 90%),–,–,–,–,–,–,–,–,"M: Abutilon theophrasti, herbicidal effect grade ([3]; 320 g/ha): 0 (Herbicidal ratio of 5% or lower (almost no effect)); N: Amaranthus retroflexus, herbicidal effect (criteria 0-5) [8]: 0 (Herbicidal ratio of 5% or lower (almost no effect)); b: directly sowed rice plant, effect on crop (criteria 0-5) [15]: 4 (Herbicidal ratio of 70% or higher and lower than 90%); c: corn, effect grade on crop [16]: 0 (Herbicidal ratio of 5% or lower (almost no effect))"
CC(CC1CC(O)=C(c2c(C)cc(C)cc2C)C1=O)=NOCc1ccc(F)cc1 (stereo not shown) [1-136],5 (Herbicidal ratio of 90% or more (almost completely withered)),5 (Herbicidal ratio of 90% or more (almost completely withered)),5 (Herbicidal ratio of 90% or more (almost completely withered)),4 (Herbicidal ratio of 70% or higher and lower than 90%),0 (Herbicidal ratio of 5% or lower (almost no effect)),0 (Herbicidal ratio of 5% or lower (almost no effect)),0 (Herbicidal ratio of 5% or lower (almost no effect)),3 (Herbicidal ratio of 40% or higher and lower than 70%),4 (Herbicidal ratio of 70% or higher and lower than 90%),4 (Herbicidal ratio of 70% or higher and lower than 90%),5 (Herbicidal ratio of 90% or more (almost completely withered)),5 (Herbicidal ratio of 90% or more (almost completely withered)),–,–,–,–,–,–,–,–,"b: directly sowed rice plant, effect on crop (criteria 0-5) [15]: 5 (Herbicidal ratio of 90% or more (almost completely withered)); Herbicidal effect grade, C: Monochoria vaginalis [17]: 5 (Herbicidal ratio of 90% or more (almost completely withered)); c: corn, effect grade on crop [16]: 0 (Herbicidal ratio of 5% or lower (almost no effect))"
CC#Cc1cc(C)c(C2=C(O)CC(CC(=NOC)C(C)C)C2=O)c(C)c1 (stereo not shown) [9-006],–,–,–,–,–,–,–,–,5 (Herbicidal ratio of 90% or more (almost completely withered)),4 (Herbicidal ratio of 70% or higher and lower than 90%),–,–,0 (Herbicidal ratio of 5% or lower (almost no effect)),5 (Herbicidal ratio of 90% or more (almost completely withered)),0 (Herbicidal ratio of 5% or lower (almost no effect)),0 (Herbicidal ratio of 5% or lower (almost no effect)),0 (Herbicidal ratio of 5% or lower (almost no effect)),5 (Herbicidal ratio of 90% or more (almost completely withered)),5 (Herbicidal ratio of 90% or more (almost completely withered)),5 (Herbicidal ratio of 90% or more (almost completely withered)),"Herbicidal effect grade, G: Setaria viridis [2, 18]: 5 (Herbicidal ratio of 90% or more (almost completely withered)); Herbicidal effect grade, M: Abutilon theophrasti [3, 18]: 0 (Herbicidal ratio of 5% or lower (almost no effect)); Effect on crop grade, f: beet [7, 18]: 0 (Herbicidal ratio of 5% or lower (almost no effect)); Herbicidal effect grade, Q: Galium spurium [9, 18]: 0 (Herbicidal ratio of 5% or lower (almost no effect)); Effect on crop grade, e: wheat [10, 18]: 5 (Herbicidal ratio of 90% or more (almost completely withered)); Effect on crop grade, c: corn [16, 18]: 5 (Herbicidal ratio of 90% or more (almost completely withered))"
CON=C(CC1CC(OC(=O)N2CCOCC2)=C(c2c(C)cc(C)cc2OC)C1=O)C1CC1 (mixture of isomers) [13-005],–,–,–,–,–,–,–,–,5 (Herbicidal ratio of 90% or more (almost completely withered)),2 (Herbicidal ratio of 20% or higher and lower than 40%),–,–,2 (Herbicidal ratio of 20% or higher and lower than 40%),5 (Herbicidal ratio of 90% or more (almost completely withered)),0 (Herbicidal ratio of 5% or lower (almost no effect)),0 (Herbicidal ratio of 5% or lower (almost no effect)),0 (Herbicidal ratio of 5% or lower (almost no effect)),5 (Herbicidal ratio of 90% or more (almost completely withered)),5 (Herbicidal ratio of 90% or more (almost completely withered)),5 (Herbicidal ratio of 90% or more (almost completely withered)),"G: Setaria viridis, herbicidal effect grade [2, 18]: 0 (Herbicidal ratio of 5% or lower (almost no effect)); M: Abutilon theophrasti, herbicidal effect grade [3, 18]: 0 (Herbicidal ratio of 5% or lower (almost no effect)); f: beet, effect on crop grade [7, 18]: 0 (Herbicidal ratio of 5% or lower (almost no effect)); Q: Galium spurium, herbicidal effect grade [9, 18]: 0 (Herbicidal ratio of 5% or lower (almost no effect)); e: wheat, effect on crop grade [10, 18]: 1 (Herbicidal ratio of 5% or higher and lower than 20%); c: corn, effect on crop grade [16, 18]: 0 (Herbicidal ratio of 5% or lower (almost no effect))"
CON=C(CC1CC(O)=C(c2c(C)cc(-n3cc(Cl)cn3)cc2C)C1=O)C1CC1 (stereo not shown) [9-007],–,–,–,–,–,–,–,–,5 (Herbicidal ratio of 90% or more (almost completely withered)),4 (Herbicidal ratio of 70% or higher and lower than 90%),–,–,0 (Herbicidal ratio of 5% or lower (almost no effect)),5 (Herbicidal ratio of 90% or more (almost completely withered)),1 (Herbicidal ratio of 5% or higher and lower than 20%),0 (Herbicidal ratio of 5% or lower (almost no effect)),0 (Herbicidal ratio of 5% or lower (almost no effect)),5 (Herbicidal ratio of 90% or more (almost completely withered)),5 (Herbicidal ratio of 90% or more (almost completely withered)),5 (Herbicidal ratio of 90% or more (almost completely withered)),"Herbicidal effect grade, G: Setaria viridis [2, 18]: 5 (Herbicidal ratio of 90% or more (almost completely withered)); Herbicidal effect grade, M: Abutilon theophrasti [3, 18]: 0 (Herbicidal ratio of 5% or lower (almost no effect)); Effect on crop grade, f: beet [7, 18]: 0 (Herbicidal ratio of 5% or lower (almost no effect)); Herbicidal effect grade, Q: Galium spurium [9, 18]: 0 (Herbicidal ratio of 5% or lower (almost no effect)); Effect on crop grade, e: wheat [10, 18]: 0 (Herbicidal ratio of 5% or lower (almost no effect)); Effect on crop grade, c: corn [16, 18]: 0 (Herbicidal ratio of 5% or lower (almost no effect))"
